Reference: ChEMBL document CHEMBL1136303, “4-(2-pyridyl)piperazine-1-carboxamides: potent vanilloid receptor 1 antagonists” (Bioorg Med Chem Lett, 2003)

Experiments:
[1] = target: T1, Transient receptor potential cation channel subfamily V member 1 (Rattus norvegicus, UniProt O35433); assay: Vanilloid receptor subtype 1 antagonist activity based on its ability to block capsaicin-induced (CAP) activation of the rat VR1 channel in a HEK293 cell line; type: functional
[2] = target: T1, Transient receptor potential cation channel subfamily V member 1; assay: Vanilloid receptor subtype 1 antagonist activity based on its ability to block low pH-induced activation of the rat VR1 channel in a HEK293 cell line; type: functional
[3] = Cmax in rat by po administration at a dose of 40 mg/kg; type: ADME, organism-based; parameters: dose 40 mg/kg, route oral; conditions: in vivo
[4] = Tmax in rat by po administration at a dose of 40 mg/kg; type: ADME, organism-based; parameters: dose 40 mg/kg, route oral; conditions: in vivo
[5] = Pharmacokinetic (PK) parameter Vz in rat; type: ADME, organism-based; conditions: in vivo, read-out: Vz
[6] = Plasma clearance in rat by iv administration at a dose of 3 mg/kg; type: ADME, organism-based; parameters: dose 3 mg/kg, route intravenous
[7] = Oral bioavailability in rat by po administration at a dose of 40 mg/kg; type: ADME, organism-based; conditions: in vivo
[8] = Half life period in rat by iv administration at a dose of 3 mg/kg; type: ADME, organism-based; parameters: dose 3 mg/kg, route intravenous; conditions: in vivo

T1 sequence (O35433 whole entry): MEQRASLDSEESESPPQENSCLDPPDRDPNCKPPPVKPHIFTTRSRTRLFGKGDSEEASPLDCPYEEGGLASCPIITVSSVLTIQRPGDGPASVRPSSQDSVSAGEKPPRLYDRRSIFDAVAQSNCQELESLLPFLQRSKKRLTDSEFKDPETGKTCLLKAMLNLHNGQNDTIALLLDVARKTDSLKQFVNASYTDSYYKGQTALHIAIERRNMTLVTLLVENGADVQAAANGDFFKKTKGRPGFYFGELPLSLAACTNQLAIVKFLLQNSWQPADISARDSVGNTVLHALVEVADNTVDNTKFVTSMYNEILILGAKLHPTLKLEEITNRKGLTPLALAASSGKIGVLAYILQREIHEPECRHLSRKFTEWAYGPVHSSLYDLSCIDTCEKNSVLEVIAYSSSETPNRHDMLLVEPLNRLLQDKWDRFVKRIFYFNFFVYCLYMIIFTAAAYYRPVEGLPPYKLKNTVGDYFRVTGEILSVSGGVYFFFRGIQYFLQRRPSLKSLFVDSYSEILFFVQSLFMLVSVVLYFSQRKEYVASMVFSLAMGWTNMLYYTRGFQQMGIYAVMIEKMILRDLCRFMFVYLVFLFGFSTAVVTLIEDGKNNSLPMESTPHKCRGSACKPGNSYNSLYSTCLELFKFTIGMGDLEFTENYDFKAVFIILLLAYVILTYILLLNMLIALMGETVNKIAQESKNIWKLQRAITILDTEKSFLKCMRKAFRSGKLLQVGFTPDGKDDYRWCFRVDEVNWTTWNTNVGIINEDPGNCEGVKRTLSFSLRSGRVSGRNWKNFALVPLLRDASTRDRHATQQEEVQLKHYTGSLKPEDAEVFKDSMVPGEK

SMILES | IC50 [1] [nM] | IC50 [2] [nM] | further results
CCCCc1ccc(NC(=O)N2CCN(c3ncccc3Cl)CC2)cc1 | 117 | 203 | –
CCc1ccc(NC(=O)N2CCN(c3ncccc3C(F)(F)F)CC2)cc1 | 111 | 121 | –
O=C(Nc1ccc(Oc2ccccc2)cc1)N1CCN(c2ncccc2C(F)(F)F)CC1 | 258 | 916 | –
CC(C)c1ccc(NC(=O)N2CCN(c3ncccc3Cl)CC2)cc1 | 11.5 | – | –
CC(C)c1ccc(NC(=O)N2CCN(c3ncccc3C(F)F)CC2)cc1 | 27.7 | 61.5 | –
CC(C)c1ccc(NC(=O)N2CCN(c3ncccc3[N+](=O)[O-])CC2)cc1 | 190 | 245 | –
CC(C)c1ccc(NC(=O)N2CCN(c3ncccc3C(F)(F)F)CC2)cc1 | 57.5 | – | –
CCc1cccnc1N1CCN(C(=O)Nc2ccc(C(C)C)cc2)CC1 | 230 | 828 | –
CCCCc1ccc(NC(=O)N2CCN(c3ncccc3C(F)(F)F)CC2)cc1 | 1360 | 5180 | –
CC(C)c1ccc(NC(=O)N2CCN(c3ncccc3C=O)CC2)cc1 | 201 | 1400 | –
O=C(Nc1ccc(C(F)(F)F)cc1)N1CCN(c2ncccc2Cl)CC1 | 63.5 | 81.4 | –
CC(C)c1ccc(NC(=S)N2CCN(c3ncccc3C(F)(F)F)CC2)cc1 | 872 | 575 | –
Cc1cccnc1N1CCN(C(=O)Nc2ccc(C(C)C)cc2)CC1 | 25.3 | 173 | –
O=C(Nc1ccc2ccccc2c1)N1CCN(c2ncccc2Cl)CC1 | 479 | 278 | –
CCCc1ccc(NC(=O)N2CCN(c3ncccc3Cl)CC2)cc1 | 41.6 | 73 | –
CC(C)(C)c1ccc(NC(=O)N2CCN(c3ncccc3Cl)CC2)cc1 | – | – | Cmax [3]: 1120 ng/mL; Tmax [4]: 30 min; Vd [5]: 5.8 L/kg; clearance [6]: 76.7 mL/min/kg; bioavailability [7]: 15.1%; half-life [8]: 54 min

SMILES | IC50 [1] [nM] | IC50 [2] [nM] | further results
O=C(Nc1ccc(OC(F)(F)F)cc1)N1CCN(c2ncccc2Cl)CC1 | 93.2 | 261 | –
O=C(Nc1ccc(Br)cc1)N1CCN(c2ncccc2Cl)CC1 | 491 | 1010 | –
Oc1cc2c(cc1O)CN(C(=S)NCCc1ccc(Cl)cc1)CCC2 [CAPSAZEPINE] | 58 | – | –
CC(C)c1ccc(NC(=O)N2CCN(c3ncccc3Br)CC2)cc1 | 4.6 | 27.1 | –
CC(C)(C)c1ccc(NC(=S)N2CCN(c3ncccc3C(F)(F)F)CC2)cc1 | 246 | 441 | –
CC(C)c1ccc(NC(=O)N2CCN(c3ncccc3I)CC2)cc1 | 56.7 | 77.4 | –
O=C(Nc1ccc(Cl)cc1)N1CCN(c2ncccc2Cl)CC1 | 655 | – | –
CCc1ccc(NC(=O)N2CCN(c3ncccc3Cl)CC2)cc1 | 107 | 56.6 | –
O=C(Nc1ccc([N+](=O)[O-])cc1)N1CCN(c2ncccc2Cl)CC1 | 1110 | > 25000 | –
CCC(C)c1ccc(NC(=O)N2CCN(c3ncccc3Cl)CC2)cc1 (stereo not drawn) | 17.4 | 23.3 | –
O=C(Nc1ccc(I)cc1)N1CCN(c2ncccc2Cl)CC1 | 285 | 310 | –
CC(C)(C)c1ccc(NC(=O)N2CCN(c3ncccc3C(F)(F)F)CC2)cc1 | 11.3 | 57.7 | –
CC(C)c1ccc(NC(=O)N2CCN(c3ncccc3C#N)CC2)cc1 | 287 | > 25000 | –
Cc1ccc(NC(=O)N2CCN(c3ncccc3C(F)(F)F)CC2)cc1 | 556 | – | –
O=C(Nc1ccc(C2CCCCC2)cc1)N1CCN(c2ncccc2Cl)CC1 | 29.8 | 91.7 | –
CC(C)(C)[C@H]1CC[C@H](NC(=O)N2CCN(c3ncccc3Cl)CC2)CC1 | 3.9 | 17.2 | –
